Measurements: publication PMC12238723, “Phase I Clinical Trial of CVL218, a Novel PARP1/2 Inhibitor, in Patients with Advanced Solid Tumors” (MedComm, 2025)

Experiments:
[1] = test system: human ether‐a‐go‐go‐related gene channel; parameters: method as in PMID 27926532, PMID 36283983; conditions: cited from earlier work
[2] = test system: patients with advanced solid tumors; assay: Dose-limiting toxicity, MTD and recommended dose; type: in vivo
Experimental: (§1) CVL218 was administered orally, and this dose‐escalation trial included nine dose levels: 100 mg QD (50 mg BID), 200 mg QD (100 mg BID), 400 mg QD (200 mg BID), 700 mg QD (350 mg BID), 1000 mg QD (500 mg BID), 1200 mg QD (600 mg BID), 1400 mg QD (700 mg BID), 1700 mg QD (850 mg BID), and 2000 mg QD (1000 mg BID). Patients enrolled in the study received a single oral dose on the first day, followed by continuous multiple dosing (twice a day taking 12 h apart) after 72 h, with the treatment cycle lasting 4 weeks. The period during which patients received a single dose is designated as cycle 0 (C0), lasting 72 h. After this period, patients begin multiple dosing, referred to as cycle 1 (C1). An initial accelerated titration design was employed for the three lowest dose groups, and the “3+3” design was applied starting with the 300 mg BID cohort.
The primary objectives were to assess safety and tolerability as well as to determine the MTD, DLT, and dose recommended for further study. DLT was defined as any of the following events occurring during cycle 0 (including 72 h wash‐out period after a single dose) and cycle 1 per Common Terminology Criteria for Adverse Events (CTCAE) version 5.0: grade 4 anemia; grade 4 neutropenia; grade 3 neutropenia with fever ≥38.5°C; grade 4 thrombocytopenia; grade 3 thrombocytopenia associated with bleeding; grade ≥2 neurotoxicity; any other grade ≥3 nonhematological toxicities (excluding alopecia). The secondary objectives were to assess the PK and preliminary efficacy of CVL218.

[3] = Plasma PK after a single oral dose (Cycle 0 Day 1); type: in vivo, patients
Experimental: as §1
A clinical PK study of CVL218 was conducted, involving blood samples collection during single‐dose administration (before treatment and 0.5, 1, 2, 3, 4, 5, 6, 8, 10, 12, and 24 h after treatment on C0D1) and multiple dosing (before treatment and 0.5, 1, 2, 3, 4, 5, 6, 8, 10, and 12 h after treatment on C1D1; before treatment on C1D8, C1D15, and C1D22; before treatment and 0.5, 1, 2, 3, 4, 5, 6, 8, 10, and 12 h after treatment on C1D28)
Single‐dose and multiple‐dose PK parameters included C max, T max, elimination half‐life (T 1/2), AUC0– t , AUC0–inf, oral clearance (CL/F), and apparent volume of distribution (V z/F) for CVL218. Tumor response was assessed per RECIST 1.1. ORR was defined as proportion of patients with a CR or PR on at least one visit, while DCR was defined as proportion of patients with a CR or PR or SD. PFS was defined as the time from the first dose of either drug to investigator assessed radiologic PD or to death of any cause. PFS would be censored at the time of last tumor assessment.
Subjects who received at least one dose of CVL218 with postadministration safety records were included in safety analysis set. Subjects who received at least one dose of CVL218 with at least one evaluable PK parameter were included in PK analysis set. Per‐protocol set were used for efficacy analysis. Descriptive statistics of safety were presented per CTCAE v5.0. The PK parameters T max and T 1/2 were shown as the median (min, max) and mean ± SD, respectively. A two‐sided p < 0.05 was considered to indicate statistical significance. Statistical analysis was performed by using GraphPad prism 8.0.2 and R‐4.3.3.

[4] = single dose C0D1, 100mg QD, n 1
[5] = single dose C0D1, 200mg QD, n 1
[6] = single dose C0D1, 400mg QD, n 1
[7] = single dose C0D1, 700mg QD, n 4
[8] = single dose C0D1, 1000mg QD, n 4
[9] = single dose C0D1, 1200mg QD, n 4
[10] = single dose C0D1, 1400mg QD, n 6
[11] = single dose C0D1, 1700mg QD, n 5

CNCc1ccc(-c2cc3cc(F)cc(C(N)=O)c3o2)cc1.Cl [CVL218]
inhibitory activity on the hERG channel [1]: without inhibitory activity | Any DLT ([2]; 50 mg BID (N = 1)): 0 n (%) | DLT: Increased creatinine ([2]; 50 mg BID (N = 1)): 0 n (%) | DLT: Renal failure ([2]; 50 mg BID (N = 1)): 0 n (%) | Any DLT ([2]; 100 mg BID (N = 1)): 0 n (%) | DLT: Increased creatinine ([2]; 100 mg BID (N = 1)): 0 n (%) | DLT: Renal failure ([2]; 100 mg BID (N = 1)): 0 n (%) | Any DLT ([2]; 200 mg BID (N = 1)): 0 n (%) | DLT: Increased creatinine ([2]; 200 mg BID (N = 1)): 0 n (%) | DLT: Renal failure ([2]; 200 mg BID (N = 1)): 0 n (%) | Any DLT ([2]; 350 mg BID (N = 4)): 0 n (%) | DLT: Increased creatinine ([2]; 350 mg BID (N = 4)): 0 n (%) | DLT: Renal failure ([2]; 350 mg BID (N = 4)): 0 n (%) | Any DLT ([2]; 500 mg BID (N = 4)): 0 n (%) | DLT: Increased creatinine ([2]; 500 mg BID (N = 4)): 0 n (%) | DLT: Renal failure ([2]; 500 mg BID (N = 4)): 0 n (%) | Any DLT ([2]; 600mg BID (N=4)): 0 n (%) | DLT: Increased creatinine ([2]; 600mg BID (N=4)): 0 n (%) | DLT: Renal failure ([2]; 600mg BID (N=4)): 0 n (%) | Any DLT ([2]; 700 mg BID (N = 6)): 1 (16.7) n (%) | DLT: Increased creatinine ([2]; 700 mg BID (N = 6)): 0 n (%) | DLT: Renal failure ([2]; 700 mg BID (N = 6)): 1 (16.7) n (%) | Any DLT ([2]; 850mg BID (N=5)): 2 (40.0) n (%) | DLT: Increased creatinine ([2]; 850mg BID (N=5)): 2 (40.0) n (%) | DLT: Renal failure ([2]; 850mg BID (N=5)): 0 n (%) | Any DLT ([2]; Overall (N=26)): 3 (11.5) n (%) | DLT: Increased creatinine ([2]; Overall (N=26)): 2 (7.7) n (%) | DLT: Renal failure ([2]; Overall (N=26)): 1 (3.8) n (%) | recommended dose for further study ([2]; oral): 700 mg BID | maximum tolerated dose (MTD) ([2]; oral, patients with advanced solid tumors): 700 mg BID | AUC0-inf, Geometric Mean [3, 4]: 0.231 µg·h/mL | AUC0-t, Geometric Mean [3, 4]: 0.207 µg·h/mL | Cl/F, Geometric Mean [3, 4]: 432000.0 mL/h | Cmax, Geometric Mean [3, 4]: 0.0409 µg/mL | T1/2, Mean [3, 4]: 3.6 h | Vz/F, Geometric Mean [3, 4]: 2270000.0 mL | AUC0-inf, Geometric Mean [3, 5]: 1.36 µg·h/mL | AUC0-t, Geometric Mean [3, 5]: 1.31 µg·h/mL | Cl/F, Geometric Mean [3, 5]: 147000.0 mL/h | Cmax, Geometric Mean [3, 5]: 0.218 µg/mL | T1/2, Mean [3, 5]: 5.1 h | Vz/F, Geometric Mean [3, 5]: 1080000.0 mL | AUC0-inf, Geometric Mean [3, 6]: 2.01 µg·h/mL | AUC0-t, Geometric Mean [3, 6]: 1.9 µg·h/mL | Cl/F, Geometric Mean [3, 6]: 199000.0 mL/h | Cmax, Geometric Mean [3, 6]: 0.334 µg/mL | T1/2, Mean [3, 6]: 6.0 h | Vz/F, Geometric Mean [3, 6]: 1710000.0 mL | AUC0-inf, Geometric Mean [3, 7]: 3.45 µg·h/mL | AUC0-t, Geometric Mean [3, 7]: 3.26 µg·h/mL | Cl/F, Geometric Mean [3, 7]: 203000.0 mL/h | Cmax, Geometric Mean [3, 7]: 0.36 µg/mL | T1/2, Mean [3, 7]: 6.3 h | Vz/F, Geometric Mean [3, 7]: 1700000.0 mL | AUC0-inf, Geometric Mean [3, 8]: 4.82 µg·h/mL | AUC0-t, Geometric Mean [3, 8]: 4.095 µg·h/mL | Cl/F, Geometric Mean [3, 8]: 212000.0 mL/h | Cmax, Geometric Mean [3, 8]: 0.5795 µg/mL | T1/2, Mean [3, 8]: 6.2 h | Vz/F, Geometric Mean [3, 8]: 2205000.0 mL | AUC0-inf, Geometric Mean [3, 9]: 4.415 µg·h/mL | AUC0-t, Geometric Mean [3, 9]: 4.175 µg·h/mL | Cl/F, Geometric Mean [3, 9]: 276000.0 mL/h | Cmax, Geometric Mean [3, 9]: 0.5475 µg/mL | T1/2, Mean [3, 9]: 6.3 h | Vz/F, Geometric Mean [3, 9]: 2155000.0 mL | AUC0-inf, Geometric Mean [3, 10]: 5.36 µg·h/mL | AUC0-t, Geometric Mean [3, 10]: 5.19 µg·h/mL | Cl/F, Geometric Mean [3, 10]: 274500.0 mL/h | Cmax, Geometric Mean [3, 10]: 0.633 µg/mL | T1/2, Mean [3, 10]: 4.7 h | Vz/F, Geometric Mean [3, 10]: 1920000.0 mL | AUC0-inf, Geometric Mean [3, 11]: 4.18 µg·h/mL | AUC0-t, Geometric Mean [3, 11]: 4.07 µg·h/mL | Cl/F, Geometric Mean [3, 11]: 407000.0 mL/h | Cmax, Geometric Mean [3, 11]: 0.408 µg/mL | T1/2, Mean [3, 11]: 5.8 h | Vz/F, Geometric Mean [3, 11]: 2780000.0 mL | median Tmax ([3]; single dose, range over cohorts): 1 to 4 h | mean half-life ([3]; single oral dose, range over cohorts): 3.6 to 6.3 h
